Measurements published in patent US10039724B2, “7-hydroxy cannabidiol (7-OH-CBD) for use in the treatment of non-alcoholic fatty liver disease (NAFLD)” (GW Pharma Limited, priority 2014, dated 2018).

Key:
[1] = test system: 3T3-L1-derived mature adipocytes; experiment: Intracellular triglyceride levels (AdipoRed) in 3T3-L1-derived mature adipocytes; format: cell-based; conditions: for intracellular lipid stores, AdipoRed staining: mature 3T3-L1-derived adipocytes treated for 48 hours
Description: (§1) HHL-5 cells were cultured in standard growth media (DMEM [Lonza] supplemented with 10% FBS [Lonza], NEAA [Gibco] and Pen.Strep [Gibco]). 3T3-L1 cells were cultured in growth media (GM; DMEM [Lonza] low NaHCO3 (1.5 g/l), supplemented with 10% FBS [Lonza] and pen./strep. [Gibco]).
In order to induce adipogenesis cells were grown to 100% confluence and then switched to differentiation media (DMEM [Lonza] supplemented with a specific lot of 10% FBS [Lonza], 1 ug/ml Insulin (Sigma), 250 nM Dexamethasone (Sigma), 500 uM MIX (Sigma) and pen./strep. [Gibco]) for 2 days, followed by incubation in DMEM [Lonza] supplemented with a specific lot of 10% FBS [Lonza], 1 ug/ml Insulin (Sigma) and pen./strep. [Gibco] until day 7-10 at which point mature adipocytes are treated with cannabinoids at the indicated concentrations.
(§2) 3T3-L1 cells were plated in 100 mm plates and differentiated as above to obtain mature adipocytes, at which point they were re-plated into 96-well plates and then treated with the indicated concentrations of cannabinoids for 2 days. Cells were then washed with PBS and stained with AdipoRed (Lonza) and read with a Genios Pro Plate reader (Tecan) according to the manufacturer's instructions.

HHL5 cells [2] = experiment: MTT cell viability assay in HHL5 cells; format: cell-based; conditions: HHL5 cells treated in parallel
Description: (§3) HHL5 cells seeded in 96-well plates were grown to 90% confluence and then treated with 100 uM oleic acid (OA) or DMSO (−) for 24 hours in the absence or presence of cannabinoids at the indicated concentrations.
(§4) MTT (3-[4,5-dimethyltiazol-2yl]-2,5 diphenyltetrazolium bromide) (5 mg/ml differentiation media) was added to cells treated as described above, and cells were incubated for additional 1 h at 37 C.
(§5) Cells were then washed in PBS and dried before the addition of 100 ul of isopropanol to dissolve the formazan precipitate. The OD of each well was measured with a Genios-Pro plate reader (Tecan) equipped with a 620-nm filter.

[3] = test system: 3T3-L1-derived mature adipocytes; experiment: MTT cell viability assay in 3T3-L1-derived mature adipocytes; format: cell-based; conditions: mature 3T3-L1-derived adipocytes
Description: as §2, §4, §5

HHL5 cells [4] = experiment: Intracellular triglyceride levels (AdipoRed) in oleic acid-treated HHL5 cells, in vitro model of fatty liver disease; format: cell-based; conditions: for intracellular lipid (triglyceride) levels, AdipoRed staining: HHL5 cells co-incubated with 100 uM oleic acid and compound for 24 hr
Description: as §1, §3, §2
HHL5 hepatocytes that have been treated with oleic acid to induce intracellular lipid accumulation are a useful in vitro model for fatty liver disease.

HHL5 cells [5] = conditions: Wargent et al., 2013; cited from earlier work

Row | SMILES | efficacy in reducing Adipored staining compared with CBD ([1]; mature 3T3-L1-derived adipocytes) | intracellular lipid stores, AdipoRed staining [1] | toxicity (cell viability, MTT assay) (HHL5 cells [2]) | effect on cellular viability (MTT assay) [3] | intracellular lipid (triglyceride) levels, AdipoRed staining (HHL5 cells [4]) | potency in lowering TG levels compared with parent compound CBD (HHL5 cells [4]; HHL5 cells, 100 uM oleic acid, 24 hr) | toxicity (cell viability, MTT assay) (HHL5 cells [2]; up to 20 uM) | triglyceride (TG) levels in HHL-5 cells treated with oleic acid (HHL5 cells [5])
1 | C=C(C)[C@@H]1CCC(CO)=C[C@H]1c1c(O)cc(CCCCC)cc1O [7-OH-CBD, 7-hydroxy-cannabidiol] | more efficacious than CBD at reducing Adipored staining | dose-dependently decreased intracellular lipid stores | neither 11-OH-THCV or 7-OH-CBD were found to be toxic | not associated with any apparent effect on cellular viability | effective at lowering TG levels | even more potent that its parent compound CBD |  | 
2 | CCCc1cc(O)c2c(c1)OC(C)(C)[C@@H]1CCC(CO)=C[C@@H]21 [11-OH-THCV, 11-hydroxy-tetrahydrocannabivarin] |  | had no effect | neither 11-OH-THCV or 7-OH-CBD were found to be toxic | not associated with any apparent effect on cellular viability | devoid of lipid lowering activity |  |  | 
3 | C=C(C)[C@@H]1CCC(C)=C[C@H]1c1c(O)cc(CCCCC)cc1O [CBD, Cannabidiol] |  | dose-dependently decreased intracellular lipid stores |  | not associated with any apparent effect on cellular viability | dose-dependently lowered intracellular lipid levels |  | no toxicity was found | 
4 | CCCc1cc(O)c2c(c1)OC(C)(C)[C@@H]1CCC(C)=C[C@@H]21 [THCV, Tetrahydrocannabivarin] |  | dose-dependently decreased intracellular lipid stores |  | not associated with any apparent effect on cellular viability | dose-dependently lowered intracellular lipid levels |  | no toxicity was found | able to reduce triglyceride (TG) levels in a time dependent manner
